Test results: patent US11981658B2, “Substituted aminopyridine compounds as EGFR inhibitors” (YUHAN CORPORATION, priority 2021, dated 2024)
Read-outs that look alike come from different tables or passages of the source.

What was measured:
EGFR L858R/C797S = EGFR L858R/C797S (Homo sapiens, UniProt P00533, C797S/L858R); assay: Biochemical EGFR kinase inhibition assay (Lance Ultra TR-FRET), double mutant L858R/C797S
Protocol: (§1) Biochemical EGFR kinase assays were conducted using Lance Ultra time-resolved fluorescence resonance energy transfer (TR-FRET) technology from Perkin-Elmer. Compounds of the invention were initially diluted to 20 mM in 100% DMSO for storage and made into kinase buffer solution to create a compound concentration ranging from 0.003 μM and 10 μM.
(§2) Each kinase reactions were incubated at room temperature for 1 hour and then stopped by the addition of 4 μL of stop solution (10 mM EDTA). The specific Europium-labeled-anti-phosphopeptide antibody (PerkinElmer, AD0069) diluted in LANCE detection buffer was then added to a final concentration of 2 nM. After 60 minutes incubation at room temperature the LANCE signal was measured on an EnVision Multilabel Reader (Perkin-Elmer). Excitation wavelength was set at 320 nm and emission monitored at 615 nm (donor) and 665 nm (acceptor). The IC50 values were determined using GraphPad prism software (GraphPad Software, Inc., San Diego, CA, USA).

EGFR Del19/C797S = EGFR Del19/C797S (Homo sapiens, UniProt P00533, C797S/DEL746-750); assay: Biochemical EGFR kinase inhibition assay (Lance Ultra TR-FRET), double mutant del19/C797S
Protocol: as §1, §2

EGFR L858R/T790M/C797S = EGFR L858R/T790M/C797S (Homo sapiens, UniProt P00533, C797S/L858R/T790M); assay: Biochemical EGFR kinase inhibition assay (Lance Ultra TR-FRET), triple mutant L858R/T790M/C797S
Protocol: as §1, §2

EGFR Del19/T790M/C797S = EGFR Del19/T790M/C797S (Homo sapiens, UniProt P00533, C797S/DEL746-750/T790M); assay: Biochemical EGFR kinase inhibition assay (Lance Ultra TR-FRET), triple mutant del19/T790M/C797S
Protocol: as §1, §2

EGFR wildtype (WT) = EGFR wildtype (WT) (Homo sapiens, UniProt P00533); assay: Biochemical EGFR kinase inhibition assay (Lance Ultra TR-FRET), wildtype
Protocol: as §1, §2

[1] = IC50 L858R/C797S (nM), 100 μM ATP
[2] = IC50 Del19/C797S (nM), 100 μM ATP
[3] = IC50 L858R/T790M/C797S (nM), 100 μM ATP
[4] = Km ATP, read-out: IC50 L858R/T790M/C797S (nM), Km ATP
[5] = IC50 Del19/T790M/C797S (nM), 100 μM ATP
[6] = Km ATP, read-out: IC50 Del19/T790M/C797S (nM), Km ATP
[7] = ATP at Km, read-out: IC50 L858R/C797S (nM), Km ATP
[8] = ATP at Km, read-out: IC50 Del19/C797S (nM), Km ATP
[9] = ATP at Km, read-out: IC50 L858R/T790M/C797S (nM), Km ATP
[10] = ATP at Km, read-out: IC50 Del19/T790M/C797S (nM), Km ATP
[11] = ATP at Km, read-out: IC50 WT (nM), Km ATP
[12] = Km ATP, read-out: IC50 Del19/C797S (nM) Km ATP
[13] = Km ATP, read-out: IC50 L858R/T790M/C797S (nM) Km ATP
[14] = Km ATP, read-out: IC50 Del19/T790M/C797S (nM) Km ATP
[15] = Km ATP, read-out: IC50 WT (nM) Km ATP

Sequence of EGFR wildtype (WT) (P00533 25-1210): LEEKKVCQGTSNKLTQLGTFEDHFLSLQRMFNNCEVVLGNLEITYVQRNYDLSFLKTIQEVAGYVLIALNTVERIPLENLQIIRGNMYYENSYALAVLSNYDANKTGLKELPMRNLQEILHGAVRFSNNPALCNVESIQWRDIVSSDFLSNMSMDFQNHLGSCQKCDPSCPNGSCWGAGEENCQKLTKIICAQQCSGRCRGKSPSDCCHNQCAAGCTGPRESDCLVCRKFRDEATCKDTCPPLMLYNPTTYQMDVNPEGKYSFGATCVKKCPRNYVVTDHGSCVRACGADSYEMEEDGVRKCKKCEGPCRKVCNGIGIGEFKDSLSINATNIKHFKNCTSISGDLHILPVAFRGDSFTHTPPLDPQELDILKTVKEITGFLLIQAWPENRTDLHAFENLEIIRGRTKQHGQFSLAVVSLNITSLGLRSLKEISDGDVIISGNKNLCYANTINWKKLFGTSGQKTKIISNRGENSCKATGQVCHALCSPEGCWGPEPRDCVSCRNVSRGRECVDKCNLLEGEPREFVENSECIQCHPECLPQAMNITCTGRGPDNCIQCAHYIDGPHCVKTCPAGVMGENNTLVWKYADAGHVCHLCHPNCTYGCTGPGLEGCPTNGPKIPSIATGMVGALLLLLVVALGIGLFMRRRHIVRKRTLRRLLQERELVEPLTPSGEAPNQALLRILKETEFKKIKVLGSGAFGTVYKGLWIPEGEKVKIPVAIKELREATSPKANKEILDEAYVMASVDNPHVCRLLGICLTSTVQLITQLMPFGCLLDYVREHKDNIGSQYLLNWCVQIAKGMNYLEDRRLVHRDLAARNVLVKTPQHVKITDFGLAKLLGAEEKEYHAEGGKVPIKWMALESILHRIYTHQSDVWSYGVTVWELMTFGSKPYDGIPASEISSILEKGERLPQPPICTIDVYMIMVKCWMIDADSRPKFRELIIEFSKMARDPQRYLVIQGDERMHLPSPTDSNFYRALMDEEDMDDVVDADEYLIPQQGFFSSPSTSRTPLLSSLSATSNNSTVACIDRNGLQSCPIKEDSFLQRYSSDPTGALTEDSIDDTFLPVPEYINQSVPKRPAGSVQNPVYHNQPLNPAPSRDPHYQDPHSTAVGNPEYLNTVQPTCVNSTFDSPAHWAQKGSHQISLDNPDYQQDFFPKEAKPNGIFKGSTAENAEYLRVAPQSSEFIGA
Sequence of EGFR Del19/T790M/C797S (P00533 with tags, fused parts or gaps DEL746-750/T790M/C797S): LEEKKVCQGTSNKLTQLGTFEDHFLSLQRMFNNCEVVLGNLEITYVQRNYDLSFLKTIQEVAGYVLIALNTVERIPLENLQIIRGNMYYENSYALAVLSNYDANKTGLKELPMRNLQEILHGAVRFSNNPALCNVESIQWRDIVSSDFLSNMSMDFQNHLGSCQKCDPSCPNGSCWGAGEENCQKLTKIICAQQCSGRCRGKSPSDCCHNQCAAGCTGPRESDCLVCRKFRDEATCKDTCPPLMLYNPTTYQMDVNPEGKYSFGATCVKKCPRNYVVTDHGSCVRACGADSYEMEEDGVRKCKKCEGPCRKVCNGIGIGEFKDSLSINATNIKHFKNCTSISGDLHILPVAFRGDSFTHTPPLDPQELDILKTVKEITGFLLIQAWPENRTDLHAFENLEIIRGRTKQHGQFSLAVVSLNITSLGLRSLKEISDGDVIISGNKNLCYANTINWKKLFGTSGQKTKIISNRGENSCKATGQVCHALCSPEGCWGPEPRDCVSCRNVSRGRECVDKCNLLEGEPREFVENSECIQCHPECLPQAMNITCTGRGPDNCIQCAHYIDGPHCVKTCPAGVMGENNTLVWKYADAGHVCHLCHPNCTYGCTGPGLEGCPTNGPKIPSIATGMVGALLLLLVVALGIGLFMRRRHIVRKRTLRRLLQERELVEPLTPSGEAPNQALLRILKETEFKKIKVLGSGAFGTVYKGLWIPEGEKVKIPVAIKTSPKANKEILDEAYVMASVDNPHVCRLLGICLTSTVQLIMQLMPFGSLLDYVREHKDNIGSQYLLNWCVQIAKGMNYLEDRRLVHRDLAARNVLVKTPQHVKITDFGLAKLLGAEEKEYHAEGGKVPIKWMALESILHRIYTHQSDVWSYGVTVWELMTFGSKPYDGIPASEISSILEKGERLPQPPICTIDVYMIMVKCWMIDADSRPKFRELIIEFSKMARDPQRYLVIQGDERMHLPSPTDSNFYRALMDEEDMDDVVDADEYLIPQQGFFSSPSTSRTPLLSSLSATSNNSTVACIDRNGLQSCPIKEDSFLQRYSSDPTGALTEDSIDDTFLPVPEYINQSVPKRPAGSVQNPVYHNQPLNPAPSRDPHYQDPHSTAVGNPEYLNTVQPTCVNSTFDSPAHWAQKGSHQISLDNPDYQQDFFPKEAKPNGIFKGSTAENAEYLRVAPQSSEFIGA
Sequence of EGFR L858R/C797S (P00533 25-1210 C797S/L858R): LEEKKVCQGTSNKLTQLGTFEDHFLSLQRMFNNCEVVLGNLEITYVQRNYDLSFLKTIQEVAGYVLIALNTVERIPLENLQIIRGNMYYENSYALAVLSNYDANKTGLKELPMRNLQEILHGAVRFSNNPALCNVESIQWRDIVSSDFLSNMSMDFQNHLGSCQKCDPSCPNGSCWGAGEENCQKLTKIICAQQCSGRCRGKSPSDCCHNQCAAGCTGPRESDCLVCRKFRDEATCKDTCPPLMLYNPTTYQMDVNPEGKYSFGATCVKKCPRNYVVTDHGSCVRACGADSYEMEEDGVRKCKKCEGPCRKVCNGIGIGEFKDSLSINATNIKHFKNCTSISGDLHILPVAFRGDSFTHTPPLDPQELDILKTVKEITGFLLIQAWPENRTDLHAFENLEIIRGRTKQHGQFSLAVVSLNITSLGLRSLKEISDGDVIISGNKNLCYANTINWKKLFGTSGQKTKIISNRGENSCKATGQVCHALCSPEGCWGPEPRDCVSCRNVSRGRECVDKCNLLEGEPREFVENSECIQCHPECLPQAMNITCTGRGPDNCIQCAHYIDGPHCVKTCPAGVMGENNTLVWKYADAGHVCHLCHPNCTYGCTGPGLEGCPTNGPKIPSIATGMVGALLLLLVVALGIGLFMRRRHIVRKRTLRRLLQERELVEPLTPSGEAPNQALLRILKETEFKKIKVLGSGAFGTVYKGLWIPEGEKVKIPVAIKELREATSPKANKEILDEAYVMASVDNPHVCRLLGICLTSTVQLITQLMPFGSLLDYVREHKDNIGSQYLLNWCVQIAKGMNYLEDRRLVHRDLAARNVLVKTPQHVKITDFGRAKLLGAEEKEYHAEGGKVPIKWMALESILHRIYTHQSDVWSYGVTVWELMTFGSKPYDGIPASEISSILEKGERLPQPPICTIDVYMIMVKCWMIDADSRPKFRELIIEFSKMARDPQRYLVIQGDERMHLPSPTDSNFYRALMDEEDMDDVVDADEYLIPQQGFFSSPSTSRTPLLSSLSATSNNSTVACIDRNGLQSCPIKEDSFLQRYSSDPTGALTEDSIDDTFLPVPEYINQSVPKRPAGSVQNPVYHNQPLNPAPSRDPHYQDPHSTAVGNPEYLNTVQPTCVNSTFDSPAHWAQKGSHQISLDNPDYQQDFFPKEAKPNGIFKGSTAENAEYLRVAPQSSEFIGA
Sequence of EGFR L858R/T790M/C797S (P00533 25-1210 T790M/C797S/L858R): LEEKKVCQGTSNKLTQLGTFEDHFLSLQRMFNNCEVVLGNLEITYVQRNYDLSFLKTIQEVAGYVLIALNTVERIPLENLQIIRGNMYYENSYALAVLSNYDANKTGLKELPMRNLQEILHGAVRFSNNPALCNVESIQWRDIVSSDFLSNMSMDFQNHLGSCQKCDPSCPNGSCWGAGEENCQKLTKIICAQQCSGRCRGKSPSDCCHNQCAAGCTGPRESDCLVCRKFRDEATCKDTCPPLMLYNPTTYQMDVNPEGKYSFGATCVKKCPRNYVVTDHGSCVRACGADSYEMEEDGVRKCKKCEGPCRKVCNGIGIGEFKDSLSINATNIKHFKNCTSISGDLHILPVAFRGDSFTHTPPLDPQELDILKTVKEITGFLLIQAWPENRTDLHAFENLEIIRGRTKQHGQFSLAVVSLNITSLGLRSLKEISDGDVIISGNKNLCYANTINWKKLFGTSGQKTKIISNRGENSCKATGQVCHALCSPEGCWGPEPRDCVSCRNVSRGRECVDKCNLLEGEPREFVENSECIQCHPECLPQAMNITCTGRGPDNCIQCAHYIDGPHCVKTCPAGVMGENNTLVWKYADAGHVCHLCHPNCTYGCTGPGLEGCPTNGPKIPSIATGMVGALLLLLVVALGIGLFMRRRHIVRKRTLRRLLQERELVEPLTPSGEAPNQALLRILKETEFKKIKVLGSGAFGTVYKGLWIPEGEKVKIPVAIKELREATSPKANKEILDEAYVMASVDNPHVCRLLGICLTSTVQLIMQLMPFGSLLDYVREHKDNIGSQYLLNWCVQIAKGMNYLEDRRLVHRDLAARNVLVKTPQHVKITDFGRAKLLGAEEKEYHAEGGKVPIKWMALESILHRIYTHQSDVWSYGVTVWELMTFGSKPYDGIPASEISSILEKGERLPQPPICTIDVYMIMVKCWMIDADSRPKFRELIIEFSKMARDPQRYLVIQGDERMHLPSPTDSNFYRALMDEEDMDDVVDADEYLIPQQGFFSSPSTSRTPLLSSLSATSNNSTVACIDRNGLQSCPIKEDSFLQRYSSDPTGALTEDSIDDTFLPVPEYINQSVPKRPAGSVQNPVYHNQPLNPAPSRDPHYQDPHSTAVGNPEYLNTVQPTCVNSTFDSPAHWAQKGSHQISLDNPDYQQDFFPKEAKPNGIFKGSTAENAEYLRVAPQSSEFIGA

Structure (SMILES)	IC50 (EGFR L858R/C797S; [1]) [nM]	IC50 (EGFR Del19/C797S; [2]) [nM]	IC50 (EGFR L858R/T790M/C797S; [3]) [nM]	IC50 (EGFR L858R/T790M/C797S; [4]) [nM]	IC50 (EGFR Del19/T790M/C797S; [5]) [nM]	IC50 (EGFR Del19/T790M/C797S; [6]) [nM]	IC50 (EGFR wildtype (WT); IC50 WT (nM), 100 μM ATP) [nM]	IC50 (EGFR L858R/C797S; [7]) [nM]	IC50 (EGFR Del19/C797S; [8]) [nM]	IC50 (EGFR L858R/T790M/C797S; [9]) [nM]	IC50 (EGFR Del19/T790M/C797S; [10]) [nM]	IC50 (EGFR wildtype (WT); [11]) [nM]	IC50 (EGFR L858R/C797S; Km ATP, read-out: IC50 L858R/C797S (nM), Km ATP) [nM]	IC50 (EGFR Del19/C797S; Km ATP, read-out: IC50 Del19/C797S (nM), Km ATP) [nM]	IC50 (EGFR wildtype (WT); Km ATP, read-out: IC50 WT (nM), Km ATP) [nM]	IC50 (EGFR Del19/C797S; [12]) [nM]	IC50 (EGFR L858R/T790M/C797S; [13]) [nM]	IC50 (EGFR Del19/T790M/C797S; [14]) [nM]	IC50 (EGFR wildtype (WT); [15]) [nM]
CC1(O)CCN(c2cc(Nc3ccnc(-c4cnn(S(=O)(=O)C5CC5)c4)n3)ncc2C#Cc2ccc(C(=O)N3CCC(O)CC3)cc2)CC1 [Example 442, (4-((6-((2-(1-(Cyclopropylsulfonyl)-1H-pyrazol-4-yl)pyrimidin-4-yl)amino)-4-(4-hydroxy-4-methylpiperidin-1-yl)pyridin-3-yl)ethynyl)phenyl)(4-hydroxypiperidin-1-yl)methanone]	20.3	1.3	0.3	0.1	0.9	0.7	9930												
CC1(CO)CCN(c2cc(Nc3ccnc(-c4cnn(S(=O)(=O)C5CC5)c4)n3)ncc2C#Cc2ccncc2)CC1 [Example 258, (1-(2-((2-(1-(Cyclopropylsulfonyl)-1H-pyrazol-4-yl)pyrimidin-4-yl)amino)-5-(pyridin-4-ylethynyl)pyridin-4-yl)-4-methylpiperidin-4-yl)methanol]	7.7	0.5	0.5		0.5		5310	1.8	0.7	0.1	0.3	5							
O=S(=O)(C1CC1)n1cc(-c2nccc(Nc3cc(N[C@H]4CCC[C@@H](O)C4)c(C#Cc4ccc(CN5CCOCC5)cc4)cn3)n2)cn1 [Example 159, (1R,3S)-3-((2-((2-(1-(Cyclopropylsulfonyl)-1H-pyrazol-4-yl)pyrimidin-4-yl)amino)-5-((4-(morpholinomethyl)phenyl)ethynyl)pyridin-4-yl)amino)cyclohexan-1-ol]	98.5	21.7	9.6		10.6		> 10000	7.4	7.7	3.4	8.3	85.5							
CN1CCC(C#Cc2cnc(Nc3ccnc(-c4cnn(S(=O)(=O)C5CC5)c4)n3)cc2N2CCC(C)(CO)CC2)CC1 [Example 182, (1-(2-((2-(1-(Cyclopropylsulfonyl)-1H-pyrazol-4-yl)pyrimidin-4-yl)amino)-5-((1-methylpiperidin-4-yl)ethynyl)pyridin-4-yl)-4-methylpiperidin-4-yl)methanol]	1.7	0.3	0.1		0.1		648	0.4	0.4	0.04	0.1	1.8							
CC(C)Nc1cc(Nc2ccnc(-c3cnn(S(=O)(=O)C4CC4)c3)n2)ncc1C#CCCCCC(=O)N1CCOCC1 [Example 210, 7-(6-((2-(1-(Cyclopropylsulfonyl)-1H-pyrazol-4-yl)pyrimidin-4-yl)amino)-4-(isopropylamino)pyridin-3-yl)-1-morpholinohept-6-yn-1-one]	157	143			3.4		> 10000												
CC(C)Nc1cc(Nc2ccnc(-c3cnn(S(=O)(=O)C4CC4)c3)n2)ncc1C#CCCCC(=O)N1CCOCC1 [Example 208, 6-(6-((2-(1-(Cyclopropylsulfonyl)-1H-pyrazol-4-yl)pyrimidin-4-yl)amino)-4-(isopropylamino)pyridin-3-yl)-1-morpholinohex-5-yn-1-one]		120	8.1		3.5		> 10000		56		5.1	107							
CC(C)Nc1cc(Nc2ccnc(-c3cnn(S(=O)(=O)C4CC4)c3)n2)ncc1C#CCCCNC(=O)N1CCOCC1 [Example 207, N-(5-(6-((2-(1-(Cyclopropylsulfonyl)-1H-pyrazol-4-yl)pyrimidin-4-yl)amino)-4-(isopropylamino)pyridin-3-yl)pent-4-yn-1-yl)morpholine-4-carboxamide]	120	76.4			2.9		> 10000		29.1		2.1	56							
Cc1nc(C#Cc2cnc(Nc3ccnc(-c4cnn(S(=O)(=O)C5CC5)c4)n3)cc2N[C@H]2CC[C@H](O)C2)cs1 [Example 222, (1 S,3S)-3-((2-((2-(1-(Cyclopropylsulfonyl)-1H-pyrazol-4-yl)pyrimidin-4-yl)amino)-5-((2-methylthiazol-4-yl)ethynyl)pyridin-4-yl)amino)cyclopentan-1-ol]		197	12.2		5.2		> 10000												

The remaining lines, values ahead:

IC50 (EGFR L858R/C797S; [1]) [nM]	IC50 (EGFR Del19/C797S; [2]) [nM]	IC50 (EGFR L858R/T790M/C797S; [3]) [nM]	IC50 (EGFR L858R/T790M/C797S; [4]) [nM]	IC50 (EGFR Del19/T790M/C797S; [5]) [nM]	IC50 (EGFR Del19/T790M/C797S; [6]) [nM]	IC50 (EGFR wildtype (WT); IC50 WT (nM), 100 μM ATP) [nM]	IC50 (EGFR L858R/C797S; [7]) [nM]	IC50 (EGFR Del19/C797S; [8]) [nM]	IC50 (EGFR L858R/T790M/C797S; [9]) [nM]	IC50 (EGFR Del19/T790M/C797S; [10]) [nM]	IC50 (EGFR wildtype (WT); [11]) [nM]	IC50 (EGFR L858R/C797S; Km ATP, read-out: IC50 L858R/C797S (nM), Km ATP) [nM]	IC50 (EGFR Del19/C797S; Km ATP, read-out: IC50 Del19/C797S (nM), Km ATP) [nM]	IC50 (EGFR wildtype (WT); Km ATP, read-out: IC50 WT (nM), Km ATP) [nM]	IC50 (EGFR Del19/C797S; [12]) [nM]	IC50 (EGFR L858R/T790M/C797S; [13]) [nM]	IC50 (EGFR Del19/T790M/C797S; [14]) [nM]	IC50 (EGFR wildtype (WT); [15]) [nM]	Structure (SMILES)
32.4	2.9	0.4	0.2	0.2	0.2	5000						5.5	2.1	10.4					CNCC1(F)CCN(c2cc(Nc3ccnc(-c4cnn(S(=O)(=O)C5CC5)c4)n3)ncc2C#Cc2cnn(C)c2)CC1 [Example 382, 2-(1-(Cyclopropylsulfonyl)-1H-pyrazol-4-yl)-N-(4-(4-fluoro-4-((methylamino)methyl)piperidin-1-yl)-5-((1-methyl-1H-pyrazol-4-yl)ethynyl)pyridin-2-yl)pyrimidin-4-amine]
															58.1	3.6	3.1	545	CCC(C)Nc1cc(Nc2ccnc(-c3cnn(S(=O)(=O)C4CC4)c3)n2)ncc1C#Cc1cnn(CCF)c1 (stereo not shown) [Example 26, N^4-(sec-Butyl)-N^2-(2-(1-(cyclopropylsulfonyl)-1H-pyrazol-4-yl)pyrimidin-4-yl)-5-((1-(2-fluoroethyl)-1H-pyrazol-4-yl)ethynyl)pyridine-2,4-diamine]
							414	82	3.4	5.7									Cc1nc(C#Cc2cnc(Nc3ccnc(-c4cnn(S(=O)(=O)C5CC5)c4)n3)cc2NC(C)C)cs1 [Example 199, N^2-(2-(1-(Cyclopropylsulfonyl)-1H-pyrazol-4-yl)pyrimidin-4-yl)-N^4-isopropyl-5-((2-methylthiazol-4-yl)ethynyl)pyridine-2,4-diamine]
															122	5.4	2.8	630	COCCC#Cc1cnc(Nc2ccnc(-c3cnn(S(=O)(=O)C4CC4)c3)n2)cc1NC(C)C [Example 22, N^2-(2-(1-(Cyclopropylsulfonyl)-1H-pyrazol-4-yl)pyrimidin-4-yl)-N^4-isopropyl-5-(4-methoxybut-1-yn-1-yl)pyridine-2,4-diamine]
	140	3.7		5.4		> 10000									41.8	2.3	4.4	1680	CC(C)Nc1cc(Nc2ccnc(-c3cnn(S(=O)(=O)C4CC4)c3)n2)ncc1C#Cc1cnn(C(C)C)c1 [Example 19, N^2-(2-(1-(Cyclopropylsulfonyl)-1H-pyrazol-4-yl)pyrimidin-4-yl)-N^4-isopropyl-5-((1-isopropyl-1H-pyrazol-4-yl)ethynyl)pyridine-2,4-diamine]
															138	13.2	6.1	2580	CC(C)Oc1cc(Nc2ccnc(-c3cnn(S(=O)(=O)C4CC4)c3)n2)ncc1C#Cc1cnn(C)c1 [Example 54, 2-(1-(Cyclopropylsulfonyl)-1H-pyrazol-4-yl)-N-(4-isopropoxy-5-((1-methyl-1H-pyrazol-4-yl)ethynyl)pyridin-2-yl)pyrimidin-4-amine]
	1000	29.8		11.3		> 10000		350		12.6	4100								CC(C)Nc1cc(Nc2ccnc(-c3cnn(S(=O)(=O)C4CC4)c3)n2)ncc1C#Cc1csc(CF)n1 [Example 200, N^2-(2-(1-(cyclopropylsulfonyl)-1H-pyrazol-4-yl)pyrimidin-4-yl)-5-((2-(fluoromethyl)thiazol-4-yl)ethynyl)-N^4-isopropylpyridine-2,4-diamine]
